# Data: patent US11939319B2, “Pyridinyl and pyrazinyl-(asa)indolsulfonamides” (UCB Pharma GmbH, priority 2018, dated 2024)
# Target: GPR17 (Homo sapiens, UniProt Q13304)
# Assay: cAMP accumulation functional assay (HTRF) in CHO hGPR17 cells
# Format: cell-based
# Parameters: host or cells: Flp-In T-REx CHO cells, expression induced with doxycycline
# Details: Schild analysis against MDL29,951, 5 μM forskolin, activity range, read-out: cAMP assay pA2 (converted)
# Protocol: Flp-In T-REx CHO cells stably expressing human GPR17 receptor (CHO hGPR17) from Evi Kostenis' lab (Bonn University, Germany) were cultured at 37° C. in a humidified atmosphere of 5% CO2. Cells were grown in DMEM with Nutrient Mixture F-12 supplemented with hygromycin B (500 μg/ml) and blasticidin (30 μg/ml). Expression from the Flp-In locus was induced by treatment with doxycycline (1 μg/ml) for 16-20 h prior assays.
# GPR17 activation can also recruit Gi-type G-protein signaling, resulting in a decrease of intracellular cyclic adenosine monophosphate (cAMP). Intracellular cAMP changes can be measured using the HTRF cAMP dynamic assay kit from CisBio (Codolet, France). Using homogenous time-resolved fluorescence technology (HTRF), the assay is based on competition between native cAMP produced by cells and cAMP labelled with the dye d2. The tracer binding was determined by an anti-cAMP antibody labeled with cryptate.
# CHO hGPR17 were detached with PBS containing EDTA and dispatched in black 384-well plates with 5,000 cells per well. Cells were first incubated for 30 minutes at room temperature in HBSS Hepes (pH 7.4) containing vehicle or varying concentrations of test GPR17 antagonist/inverse agonist compounds. Then, a dose response curve of MDL29,951 GPR17 agonist (typically from 10^−5M to 10^−10M) was added on vehicle and on each test GPR17 antagonist/inverse agonist compound concentration in a final volume of 20 μL HBSS Hepes buffer (pH 7.4) containing 1% DMSO, 5 μM forskolin and 0.1 mM IBMX. After 60 minutes incubation at room temperature, the reaction is terminated and the cells lysed by adding the d2 detection reagent and the cryptate reagent in 10 μL lysis buffer each according to manufacturer's instructions. After 60 minutes incubation, changes in cAMP concentrations are measured according to manufacturer's instructions using an Envision plate reader with laser excitation. All incubations were performed in duplicate. Data was analyzed using GraphPad Prism software using the 4-parameter logistic equation to measure MDL29,951 pEC50s in absence and presence of GPR17 antagonist/inverse agonist test compounds. Dose ratio (DR) were plotted against antagonist concentrations and Schild analysis provided estimated affinity pA2 of GPR17 antagonist/inverse agonist test compounds.
# The activities of the Example compounds tested are depicted in the table below. The activity ranges A, B and C refer to pA2 values in the cAMP assay as follows: “A”: pA2 6.5≤x<7.5, “B”: pA2 7.5≤x<8.5, “C”: 8.5≤pA2.
# Chain of GPR17 (Q13304 29-367 limits assumed): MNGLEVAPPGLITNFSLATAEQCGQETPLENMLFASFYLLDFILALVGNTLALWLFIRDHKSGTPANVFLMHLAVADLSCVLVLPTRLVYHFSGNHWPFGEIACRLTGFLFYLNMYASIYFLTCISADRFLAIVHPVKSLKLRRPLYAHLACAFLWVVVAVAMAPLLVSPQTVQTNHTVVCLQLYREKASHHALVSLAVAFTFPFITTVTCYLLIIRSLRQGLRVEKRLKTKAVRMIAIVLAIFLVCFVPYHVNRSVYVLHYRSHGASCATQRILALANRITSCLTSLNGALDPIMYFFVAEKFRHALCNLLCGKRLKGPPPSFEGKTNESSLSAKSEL
row,Kb [nM],Compound
1,≤ 3.16,"COc1nc(OC(F)F)c(F)cc1NS(=O)(=O)c1c[nH]c2cc(Cl)ccc12 [Example I-9, 6-chloro-N-[6-(difluoromethoxy)-5-fluoro-2-methoxypyridin-3-yl]-1H-indole-3-sulfonamide]"
2,≤ 3.16,"COc1nc(Cl)cnc1NS(=O)(=O)c1c[nH]c2cc(Cl)ccc12 [Example I-11, 6-chloro-N-(5-chloro-3-methoxypyrazin-2-yl)-1H-indole-3-sulfonamide]"
3,≤ 3.16,"COc1nc(OCCF)c(F)cc1NS(=O)(=O)c1c[nH]c2cc(Cl)ccc12 [Example I-12, 6-chloro-N-[5-fluoro-6-(2-fluoroethoxy)-2-methoxypyridin-3-yl]-1H-indole-3-sulfonamide]"
4,3.16 to 31.6,"COc1nc(OCCF)ccc1NS(=O)(=O)c1c[nH]c2cc(Cl)ccc12 [Example I-13, 6-chloro-N-[6-(2-fluoroethoxy)-2-methoxypyridin-3-yl]-1H-indole-3-sulfonamide]"
5,≤ 3.16,"COc1nc(OC(F)F)c(F)cc1NS(=O)(=O)c1c[nH]c2cc(C(F)F)ccc12 [Example I-16, N-[6-(difluoromethoxy)-5-fluoro-2-methoxypyridin-3-yl]-6-(difluoromethyl)-1H-indole-3-sulfonamide]"
6,≤ 3.16,"COc1nc(OC(F)F)c(F)cc1NS(=O)(=O)c1c[nH]c2nc(Cl)ccc12 [Example I-22, 6-chloro-N-[6-(difluoromethoxy)-5-fluoro-2-methoxypyridin-3-yl]-1H-pyrrolo[2,3-b]pyridine-3-sulfonamide]"
7,31.6 to 316,"O=S(=O)(Nc1cnc(Cl)cc1Cl)c1c[nH]c2cc(Cl)ccc12 [Example I-26, 6-chloro-N-(4,6-dichloropyridin-3-yl)-1H-indole-3-sulfonamide]"
8,31.6 to 316,"COc1nc(Cl)ccc1NS(=O)(=O)c1c[nH]c2cc(C(F)F)ccc12 [Example I-27, N-(6-chloro-2-methoxypyridin-3-yl)-6-(difluoromethyl)-1H-indole-3-sulfonamide]"
9,31.6 to 316,"COc1nc(Cl)ccc1NS(=O)(=O)c1c[nH]c2nc(C(F)F)ccc12 [Example I-28, N-(6-chloro-2-methoxypyridin-3-yl)-6-(difluoromethyl)-1H-pyrrolo[2,3-b]pyridine-3-sulfonamide]"
10,3.16 to 31.6,"COc1nc(Cl)c(F)cc1NS(=O)(=O)c1c[nH]c2nc(C(F)F)ccc12 [Example I-29, N-(6-chloro-5-fluoro-2-methoxypyridin-3-yl)-6-(difluoromethyl)-1H-pyrrolo[2,3-b]pyridine-3-sulfonamide]"
11,31.6 to 316,"O=S(=O)(Nc1cc(F)c(OCC(F)F)nc1F)c1c[nH]c2nc(C(F)F)ccc12 [Example I-30, N-[6-(2,2-difluoroethoxy)-2,5-difluoro-3-pyridyl]-6-(difluoromethyl)-1H-pyrrolo[2,3-b]pyridine-3-sulfonamide]"
12,31.6 to 316,"COc1nc(Cl)ccc1NS(=O)(=O)c1c[nH]c2nc(Cl)ccc12 [Example I-35, 6-chloro-N-(6-chloro-2-methoxypyridin-3-yl)-1H-pyrrolo[2,3-b]pyridine-3-sulfonamide]"
13,≤ 3.16,"COc1nc(OCCF)c(F)cc1NS(=O)(=O)c1c[nH]c2nc(Cl)ccc12 [Example I-36, 6-chloro-N-[5-fluoro-6-(2-fluoroethoxy)-2-methoxypyridin-3-yl]-1H-pyrrolo[2,3-b]pyridine-3-sulfonamide]"
14,3.16 to 31.6,"COc1nc(OC(F)F)ccc1NS(=O)(=O)c1c[nH]c2nc(Cl)ccc12 [Example I-37, 6-chloro-N-[6-(difluoromethoxy)-2-methoxy-3-pyridyl]-1H-pyrrolo[2,3-b]pyridine-3-sulfonamide]"
15,≤ 3.16,"COc1nc(OCC(F)F)ccc1NS(=O)(=O)c1c[nH]c2cc(Cl)ccc12 [Example I-38, 6-chloro-N-[6-(2,2-difluoroethoxy)-2-methoxypyridin-3-yl]-1H-indole-3-sulfonamide]"
16,3.16 to 31.6,"COc1ccc(NS(=O)(=O)c2c[nH]c3cc(Cl)ccc23)c(OCC(F)F)n1 [Example I-39, 6-chloro-N-[2-(2,2-difluoroethoxy)-6-methoxypyridin-3-yl]-1H-indole-3-sulfonamide]"

row,Kb [nM],Compound
1,3.16 to 31.6,"COc1cc(OC(F)F)ncc1NS(=O)(=O)c1c[nH]c2cc(Cl)ccc12 [Example I-40, 6-chloro-N-[6-(difluoromethoxy)-4-methoxypyridin-3-yl]-1H-indole-3-sulfonamide]"
2,3.16 to 31.6,"O=S(=O)(Nc1cc(F)c(C2CC2)nc1F)c1c[nH]c2cc(Cl)ccc12 [Example I-41, 6-chloro-N-(6-cyclopropyl-2,5-difluoropyridin-3-yl)-1H-indole-3-sulfonamide]"
3,≤ 3.16,"COc1nc(OCC(F)F)c(F)cc1NS(=O)(=O)c1c[nH]c2cc(Cl)ccc12 [Example I-42, 6-chloro-N-[6-(2,2-difluoroethoxy)-5-fluoro-2-methoxypyridin-3-yl]-1H-indole-3-sulfonamide]"
4,≤ 3.16,"COc1nc(OCCOC(F)F)c(F)cc1NS(=O)(=O)c1c[nH]c2cc(Cl)ccc12 [Example I-43, 6-chloro-N-[6-[2-(difluoromethoxy)ethoxy]-5-fluoro-2-methoxypyridin-3-yl]-1H-indole-3-sulfonamide]"
5,31.6 to 316,"O=S(=O)(Nc1cc(F)c(OCC(F)F)nc1F)c1c[nH]c2nc(Cl)ccc12 [Example I-44, 6-chloro-N-[6-(2,2-difluoroethoxy)-2,5-difluoropyridin-3-yl]-1H-pyrrolo[2,3-b]pyridine-3-sulfonamide]"
6,3.16 to 31.6,"COc1nc(OCC(F)F)ccc1NS(=O)(=O)c1c[nH]c2nc(Cl)ccc12 [Example I-45, 6-chloro-N-[6-(2,2-difluoroethoxy)-2-methoxypyridin-3-yl]-1H-pyrrolo[2,3-b]pyridine-3-sulfonamide]"
7,≤ 3.16,"COc1nc(OCC(F)F)c(F)cc1NS(=O)(=O)c1c[nH]c2nc(Cl)ccc12 [Example I-46, 6-chloro-N-[6-(2,2-difluoroethoxy)-5-fluoro-2-methoxypyridin-3-yl]-1H-pyrrolo[2,3-b]pyridine-3-sulfonamide]"
8,3.16 to 31.6,"O=S(=O)(Nc1cc(F)c(C2CC2)nc1F)c1c[nH]c2nc(Cl)ccc12 [Example I-47, 6-chloro-N-(6-cyclopropyl-2,5-difluoropyridin-3-yl)-1H-pyrrolo[2,3-b]pyridine-3-sulfonamide]"
9,≤ 3.16,"COc1nc(OCCOC(F)F)c(F)cc1NS(=O)(=O)c1c[nH]c2nc(Cl)ccc12 [Example I-48, 6-chloro-N-[6-[2-(difluoromethoxy)ethoxy]-5-fluoro-2-methoxypyridin-3-yl]-1H-pyrrolo[2,3-b]pyridine-3-sulfonamide]"
10,31.6 to 316,"COc1ncc(F)cc1NS(=O)(=O)c1c[nH]c2nc(Cl)ccc12 [Example I-49, 6-chloro-N-(5-fluoro-2-methoxypyridin-3-yl)-1H-pyrrolo[2,3-b]pyridine-3-sulfonamide]"
11,≤ 3.16,"COc1nc(C2CC2)c(F)cc1NS(=O)(=O)c1c[nH]c2cc(Cl)ccc12 [Example I-50, 6-chloro-N-(6-cyclopropyl-5-fluoro-2-methoxypyridin-3-yl)-1H-indole-3-sulfonamide]"
12,≤ 3.16,"COc1nc(OCC(F)F)c(F)cc1NS(=O)(=O)c1c[nH]c2cc(OC(F)F)ccc12 [Example I-51, N-[6-(2,2-difluoroethoxy)-5-fluoro-2-methoxypyridin-3-yl]-6-(difluoromethoxy)-1H-indole-3-sulfonamide]"
13,3.16 to 31.6,"O=S(=O)(Nc1cc(F)c(OCC(F)F)nc1F)c1c[nH]c2cc(C(F)F)ccc12 [Example I-52, N-[6-(2,2-difluoroethoxy)-2,5-difluoropyridin-3-yl]-6-(difluoromethyl)-1H-indole-3-sulfonamide]"
14,3.16 to 31.6,"COc1nc(OCC(F)F)ccc1NS(=O)(=O)c1c[nH]c2nc(C(F)F)ccc12 [Example I-53, N-[6-(2,2-difluoroethoxy)-2-methoxypyridin-3-yl]-6-(difluoromethyl)-1H-pyrrolo[2,3-b]pyridine-3-sulfonamide]"
15,≤ 3.16,"COc1nc(OCC(F)F)c(F)cc1NS(=O)(=O)c1c[nH]c2nc(C(F)F)ccc12 [Example I-54, N-[6-(2,2-difluoroethoxy)-5-fluoro-2-methoxypyridin-3-yl]-6-(difluoromethyl)-1H-pyrrolo[2,3-b]pyridine-3-sulfonamide]"
16,3.16 to 31.6,"COc1nc(OCCF)c(F)cc1NS(=O)(=O)c1c[nH]c2nc(C(F)F)ccc12 [Example I-55, 6-(difluoromethyl)-N-[5-fluoro-6-(2-fluoroethoxy)-2-methoxypyridin-3-yl]-1H-pyrrolo[2,3-b]pyridine-3-sulfonamide]"
